# Results from PubChem BioAssay (NCI).
# Where “and” joins values, the source holds several entries; their conditions need not be identical. Identical values can stand only once.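 In this assay, cells in 96-well plates receive the compound at five concentrations for 48 hours. Endpoints are linearly interpolated between the surrounding concentrations. Here, GI50 denotes the concentration required for 50% inhibition of growth. TGI is the concentration that stops growth completely.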 Where a SMILES comes first, the peptide text is derived from it. The star is where a group is joined. Boc = CC(C)(C)OC(=O)*
# Tested on: K-562 leukemia
# Test: growth of human tumour cells (NCI), 48 h
SMILES,GI50,TGI
COc1ccc(C(O)(CCC(C)C)C(CN2CCOCC2)c2ccc(Cl)cc2)cc1 (stereo not drawn),15.1 µM,47 µM
COc1cc(/C=C\c2cc(OC)c(OC)c(OC)c2)cc(N/C=C\C(=O)c2cc(OC)c(OC)c(OC)c2)c1OC,3.38 µM,> 100 µM
Cn1c(=O)c(Oc2ccc(F)cc2)cc2cnc(NC3CCOCC3)nc21,> 25 µM,> 25 µM
CC1(C)N=C(N)N=C(N)N1c1ccc(CCCCc2ccc(Cl)c(S(=O)(=O)F)c2)c(Cl)c1,0.127 µM,15.8 µM
Clc1nc(Cl)nc(Nc2cccc3ccccc23)n1,40.8 µM,> 100 µM
Cc1cc2cc3c(=O)[nH]c(=O)[nH]c3nc2cc1C,,> 100 µM
BrCc1cccc(C[P+](c2ccccc2)(c2ccccc2)c2ccccc2)c1,4.26 µM,> 100 µM
O=C(O)c1ccc(C(=O)O)c2c(C(=O)O)ccc(C(=O)O)c12,,> 100 µM
CSc1nc(NC2OC(COC(C)=O)C(OC(C)=O)C(OC(C)=O)C2OC(C)=O)c(N=CC=Nc2c(NC3OC(COC(C)=O)C(OC(C)=O)C(OC(C)=O)C3OC(C)=O)nc(SC)n(C)c2=O)c(=O)n1C (stereo not drawn),> 50 µM,> 100 µM
O=S(=O)(Nc1ccc(Cl)cc1Cl)c1ccc(-c2cnc(C3CC3)o2)cc1,0.382 µM,> 100 µM
O=C(/C=C/C=C/c1ccccc1)c1ccccc1,,66.2 µM
C#Cc1nc(Nc2cc(C)[nH]n2)c2ccccc2n1,0.349 µM,> 100 µM
COC(=O)C(C)NC(=O)C(CCSC)NC(=O)C(Cc1ccccc1)NC(=O)OC(C)(C)C (stereo not drawn) (Boc-Phe-Met-Ala-OMe; configuration not given here),32.7 µg/mL,91.2 µg/mL
Cc1nc2cc(Nc3nc(Nc4ccc(F)cc4)nc(-c4cccs4)n3)ccc2n1Cc1ccccc1,3.07 µM,20.6 µM

# Tested on: SR leukemia
# Test: growth of human tumour cells (NCI), 48 h
SMILES,GI50,TGI
Cn1c(Nc2ccc(C(F)(F)F)cc2)nc2cc(Oc3ccnc(-c4ncc(C(F)(F)F)[nH]4)c3)ccc21,0.0457 µM,13.2 µM
C[C@@]12CCC[C@@](C)(C(=O)O)C1CC[C@]13CC(=O)[C@](CO)(C1)[C@@H](O)CC32 (stereo partly drawn),> 100 µM,> 100 µM
O=[N+]([O-])c1ccc(CI)cc1,2.24 µM,10.3 µM
CN(C)C/C=C/C(=O)Nc1cc2c(Nc3ccc(F)c(Cl)c3)ncnc2cc1O[C@H]1CCOC1,3.46 µM and 1.26 µM,13.2 µM and 6.5 µM
COc1cc(/C=C/C(=O)c2cccc(-n3cc(-c4ccc(Cl)cc4)[nH]c3=O)c2)ccc1O,11.8 µM,> 100 µM
CCN(Cc1ccc(F)cc1)c1ccc(CO)c(Br)c1,17 µM,46.4 µM
COc1ccc(-c2cc(/C=C/C(=O)c3ccc(OC)c(OC)c3)[nH]n2)cc1,0.677 µM,3.74 µM
Oc1ccc(Nc2c3ccccc3nc3occ(Cl)c23)cc1,2.3 µM,8.62 µM
CC1(Br)Cc2ccccc2C1=O (stereo not drawn),0.129 µM,1.25 µM
CN(C)C(=S)Sc1ccc([N+](=O)[O-])cc1[N+](=O)[O-],0.296 µM,16.8 µM
CCOC(=O)/C=C/c1ccc(C#Cc2ccccc2)cc1,10.3 µM,> 100 µM
COc1ccc(C(O)(CCC(C)C)C(CN2CCOCC2)c2ccc(Cl)cc2)cc1 (stereo not drawn),10.4 µM,28.9 µM
COc1cc(/C=C\c2cc(OC)c(OC)c(OC)c2)cc(N/C=C\C(=O)c2cc(OC)c(OC)c(OC)c2)c1OC,2.03 µM,> 100 µM
Cn1c(=O)c(Oc2ccc(F)cc2)cc2cnc(NC3CCOCC3)nc21,> 25 µM,> 25 µM
CC1(C)N=C(N)N=C(N)N1c1ccc(CCCCc2ccc(Cl)c(S(=O)(=O)F)c2)c(Cl)c1,0.186 µM,3.36 µM
Clc1nc(Cl)nc(Nc2cccc3ccccc23)n1,18.3 µM,48.3 µM
Cc1cc2cc3c(=O)[nH]c(=O)[nH]c3nc2cc1C,,> 100 µM
CC(C)OC(=O)[C@H](C)NP(=O)(OC[C@H]1O[C@@H](n2ccc(=O)[nH]c2=O)[C@](C)(F)[C@@H]1O)Oc1ccccc1 (stereo partly drawn),> 100 µM,> 100 µM
BrCc1cccc(C[P+](c2ccccc2)(c2ccccc2)c2ccccc2)c1,25.8 µM,> 100 µM
CN(C)c1ncnc2c1ncn2CCn1cnc2c(N(C)C)ncnc21,,> 100 µM
O=C(O)c1ccc(C(=O)O)c2c(C(=O)O)ccc(C(=O)O)c12,,> 100 µM
CSc1nc(NC2OC(COC(C)=O)C(OC(C)=O)C(OC(C)=O)C2OC(C)=O)c(N=CC=Nc2c(NC3OC(COC(C)=O)C(OC(C)=O)C(OC(C)=O)C3OC(C)=O)nc(SC)n(C)c2=O)c(=O)n1C (stereo not drawn),> 50 µM,> 100 µM
O=S(=O)(Nc1ccc(Cl)cc1Cl)c1ccc(-c2cnc(C3CC3)o2)cc1,0.42 µM,> 58.9 µM
O=C(/C=C/C=C/c1ccccc1)c1ccccc1,,34.5 µM
C#Cc1nc(Nc2cc(C)[nH]n2)c2ccccc2n1,0.226 µM,0.79 µM
COC(=O)C(C)NC(=O)C(CCSC)NC(=O)C(Cc1ccccc1)NC(=O)OC(C)(C)C (stereo not drawn) (Boc-Phe-Met-Ala-OMe; configuration not given here),21.4 µg/mL,44.8 µg/mL and > 100 µM
Cc1nc2cc(Nc3nc(Nc4ccc(F)cc4)nc(-c4cccs4)n3)ccc2n1Cc1ccccc1,2.56 µM,7.44 µM

# Tested on: MALME-3M melanoma
# Test: growth of human tumour cells (NCI), 48 h
SMILES,GI50,TGI
Cn1c(Nc2ccc(C(F)(F)F)cc2)nc2cc(Oc3ccnc(-c4ncc(C(F)(F)F)[nH]4)c3)ccc21,0.0284 µM,0.154 µM
C[C@@]12CCC[C@@](C)(C(=O)O)C1CC[C@]13CC(=O)[C@](CO)(C1)[C@@H](O)CC32 (stereo partly drawn),> 100 µM,> 100 µM
O=[N+]([O-])c1ccc(CI)cc1,2.15 µM,4.63 µM
CN(C)C/C=C/C(=O)Nc1cc2c(Nc3ccc(F)c(Cl)c3)ncnc2cc1O[C@H]1CCOC1,2.1 µM and 1.22 µM,4.16 µM and 3.95 µM
COc1cc(/C=C/C(=O)c2cccc(-n3cc(-c4ccc(Cl)cc4)[nH]c3=O)c2)ccc1O,5.99 µM,22.2 µM
CCN(Cc1ccc(F)cc1)c1ccc(CO)c(Br)c1,16.9 µM,38 µM
COc1ccc(-c2cc(/C=C/C(=O)c3ccc(OC)c(OC)c3)[nH]n2)cc1,1.62 µM,3.45 µM
Oc1ccc(Nc2c3ccccc3nc3occ(Cl)c23)cc1,2.13 µM,8.62 µM
CC1(Br)Cc2ccccc2C1=O (stereo not drawn),,9.62 µM and 14.1 µM
CN(C)C(=S)Sc1ccc([N+](=O)[O-])cc1[N+](=O)[O-],1.38 µM,3.17 µM
CCOC(=O)/C=C/c1ccc(C#Cc2ccccc2)cc1,98.3 µM,> 100 µM
COc1ccc(C(O)(CCC(C)C)C(CN2CCOCC2)c2ccc(Cl)cc2)cc1 (stereo not drawn),19.1 µM,39.5 µM
COc1cc(/C=C\c2cc(OC)c(OC)c(OC)c2)cc(N/C=C\C(=O)c2cc(OC)c(OC)c(OC)c2)c1OC,2.91 µM,> 100 µM
Cn1c(=O)c(Oc2ccc(F)cc2)cc2cnc(NC3CCOCC3)nc21,> 25 µM,> 25 µM
CC1(C)N=C(N)N=C(N)N1c1ccc(CCCCc2ccc(Cl)c(S(=O)(=O)F)c2)c(Cl)c1,2.36 µM,12.5 µM
Clc1nc(Cl)nc(Nc2cccc3ccccc23)n1,76.9 µM,> 100 µM
Cc1cc2cc3c(=O)[nH]c(=O)[nH]c3nc2cc1C,,> 100 µM
CC(C)OC(=O)[C@H](C)NP(=O)(OC[C@H]1O[C@@H](n2ccc(=O)[nH]c2=O)[C@](C)(F)[C@@H]1O)Oc1ccccc1 (stereo partly drawn),> 100 µM,> 100 µM
BrCc1cccc(C[P+](c2ccccc2)(c2ccccc2)c2ccccc2)c1,82.8 µM,> 100 µM
CN(C)c1ncnc2c1ncn2CCn1cnc2c(N(C)C)ncnc21,,> 100 µM
O=C(O)c1ccc(C(=O)O)c2c(C(=O)O)ccc(C(=O)O)c12,,> 100 µM
CSc1nc(NC2OC(COC(C)=O)C(OC(C)=O)C(OC(C)=O)C2OC(C)=O)c(N=CC=Nc2c(NC3OC(COC(C)=O)C(OC(C)=O)C(OC(C)=O)C3OC(C)=O)nc(SC)n(C)c2=O)c(=O)n1C (stereo not drawn),> 50 µM,> 100 µM
O=C(/C=C/C=C/c1ccccc1)c1ccccc1,,21.6 µM
C#Cc1nc(Nc2cc(C)[nH]n2)c2ccccc2n1,0.295 µM,0.915 µM
